Key:
[1] = test system: adult patients diagnosed with highly active, non-cirrhotic NASH; assay: NATIVE phase 2b trial of lanifibranor, liver histology response at Week 24; type: in vivo, human; details: once daily orally, 24 weeks
Excerpt: Patients were eligible for inclusion if they were 18 years of age or older and had non-cirrhotic NASH (the diagnosis of which required a Steatosis, Activity, Fibrosis [SAF] grade of 1 or higher for steatosis, hepatocellular ballooning and lobular inflammation on liver biopsy). A score of 3 or higher on the SAF-A (the activity part of the SAF scoring system that incorporates the scores for hepatocellular ballooning and lobular inflammation) was also a criterion for eligibility. Patients with stage F4 fibrosis, classified according to the criteria of both the SAF and NASH Clinical Research Network (NASH CRN) were excluded from the study. Patients were randomly assigned in a 1:1:1 ratio to receive 800 or 1200 mg lanifibranor or placebo once daily for 24 weeks. Liver biopsy was obtained at baseline and at the end of treatment. The primary end point of the NATIVE study was defined as a decrease of at least 2 points from baseline to Week 24 (end of treatment) in the SAF-A score and no worsening of fibrosis. Secondary histologic end points included resolution of NASH (defined as a ballooning grade of 0 and a lobular inflammation grade of ≤1) and no worsening of fibrosis; improvement in fibrosis of at least 1 stage and no worsening of NASH (i.e., no worsening in either steatosis, ballooning, or lobular inflammation); Nonalcoholic Fatty Liver Disease Activity Score (NAS) improvement (defined as a decrease of ≥2 points from baseline to week 24 in the NAS) and no worsening of fibrosis; resolution of NASH and an improvement in fibrosis stage of at least 1 (as a composite end point); change in scores for the components of the SAF and NASH CRN scoring system (steatosis, activity, inflammation, ballooning, and fibrosis); and change in the modified Ishak score. Non-histologic secondary endpoints included changes in a panel of serum biomarkers related to metabolism, inflammation tissue injury and fibrosis. Patients receiving lanifibranor 800 or 1200 mg per day were pooled and those with pre- and post-treatment liver biopsies were selected (n=142). Post-treatment biopsies were considered if they occurred within 14 days following last lanifibranor intake. The following histological endpoint according to NASH-CRN criteria was considered: NASH resolution without worsening of fibrosis (E2). In the NATIVE trial, from February 2017 through July 2019, 247 patients were randomly assigned to receive 1200 mg of lanifibranor (N=83), 800 mg of lanifibranor (N=83), or placebo (N=81) orally once daily for 6 months. A total of 228 patients completed the trial, 77 in each lanifibranor group and 74 in the placebo group. Reasons for discontinuation of the trial regimen have been reported elsewhere. Finally, among the 154 patients treated with lanifibranor at both doses, 142 patients (N=70 and N=72 patients treated with 800 or 1200 mg per day, respectively) presented with pre- and post-treatment liver biopsies within the time frame required for the present work and were included in the analysis population for signature development.

[2] = test system: adult patients diagnosed with highly active, non-cirrhotic NASH; details: background statement, cited from earlier work
[3] = 800 and 1200 mg per day pooled, analysis population N=142

SMILES: O=C(O)CCCc1cc2cc(Cl)ccc2n1S(=O)(=O)c1ccc2ncsc2c1 [lanifibranor, 4-[1-(1,3-benzothiazol-6-ylsulfonyl)-5-chloroindol-2-yl]butanoic acid]
- Resolution of NASH without worsening of liver fibrosis (E2), number of patients ([1]; 800 mg per day, N=70): 27 patients
- Resolution of NASH without worsening of liver fibrosis (E2), percentage of patients ([1]; 800 mg per day, N=70): 39%
- Resolution of NASH without worsening of liver fibrosis (E2), number of patients ([1]; 1200 mg per day, N=72): 36 patients
- Resolution of NASH without worsening of liver fibrosis (E2), percentage of patients ([1]; 1200 mg per day, N=72): 50%
- Resolution of NASH without worsening of liver fibrosis (E2), number of patients [1, 3]: 63 patients
- Resolution of NASH without worsening of liver fibrosis (E2), percentage of patients [1, 3]: 44%
- Percentage of patients with a decrease of at least 2 points in the SAF-A score without worsening of fibrosis, compared to placebo ([2]; daily dose of 1200 mg, patients with active NASH): significantly higher
- Secondary endpoints (NASH resolution and fibrosis improvement, NASH resolution without worsening of fibrosis, improvement of fibrosis without worsening of NASH; NASH-CRN), compared to placebo ([2]; lanifibranor groups): more favorable than placebo
